# Source: US5032597A, “Method of using phenylquinolinecarboxylic acids and derivatives for lymthoid leukemia treatment in a mammal” (priority 1987, dated 1991)
# Where two headings read alike, the source gives them in different places.
# What was measured:
# [1] = test system: L1210 leukemia; experiment: Lymphoid Leukemia L1210, survival of tumored mice; assay type: in vivo, CD2F1 mice; conditions: for response vs control in vivo at 100 mg/kg: 100 mg/kg i.p.; for response vs control in vivo at 200 mg/kg: 200 mg/kg i.p.; for response vs control in vivo at 50 mg/kg: 50 mg/kg i.p.; for response vs control in vivo at 25 mg/kg: 25 mg/kg i.p.; for response vs control in vivo at 75 mg/kg: 75 mg/kg i.p.
# Protocol: The efficacy of the compounds of this invention against the transplanted mouse tumors was evaluated in test systems currently in use at the National Cancer Institute for the detection and assessment of anticancer activity. […] J. Cancer, 17, 129-142, (1981); Venditti, J. M., Seminars in Oncology, 8 (4) (1981); Goldin, A. and J. M. Venditti, in Recent Results in Cancer Research, 70, S. K. Carter and Y. Sakurai, Eds., Springer-Verlag, Berlin/Heidelberg, 1980].
# The animals used in this test were CD2 F1 mice, all males weighing a minimum of 18 g and all within a 4 g weight range at the start of the test. The test group consisted of six mice. The tumor was implanted in each of the test mice by the intraperitoneal injection of 0.1 ml of diluted ascitic fluid containing 10^5 cells drawn from a mouse with L1210 leukemia. The test compounds were suspended in hydroxypropylcellulose or saline with Tween® 80 surfactant or dissolved in saline and injected intraperitoneally, at various doses, once daily for nine consecutive days starting on day one relative to the day of tumor inoculation (day 0). The control mice received injections of saline or hydroxypropylcellulose vehicle only. The mice were weighed and survivors were recorded on a regular basis for 30 days. The median survival time and the ratio of the median survival time for the treated (T) and control (C) mice was calculated. […] Drug effectiveness was assessed on the basis of the survival time. Results were expressed as a percentage of the control survival time (Median Survival Time: T/C ×100%). The criterion for effectiveness was determined by: T/C×100≥125 percent.
# [2] = test system: human colon carcinoma cells HCT-15; experiment: Human colon tumor test in vitro, HCT-15 cell growth inhibition; assay type: cell-based; conditions: HCT-15 cells, compound day 1 to day 4; for in vitro HCT-15 ID50 (50 percent inhibition of number of doublings): 4320 min; for IC50: Homo sapiens, HCT-15, 72 h, read-out: in vitro HCT-15 ID50 (50 percent inhibition of number of doublings)
# Protocol: The compound of this invention were also tested for their ability to inhibit the growth of human colon carcinoma cells in vitro.
# The human colon carcinoma cells, designated HCT-15, were derived from a specimen of an adenocarcinoma of human colon removed during surgery. The cells were grown in Roswell Park Medical Institute (RPMI) Medium 1640 supplemented with 10% heat inactivated fetal calf serum, penicillin (100 units/ml), streptomycin (100 μg/ml), gentamicin (20 μg/ml), fungizone (25 μg/ml), 0.075 percent sodium bicarbonate, […] 4-(2-hydroxyethyl)-1-piperazineethanesulfonic acid and […] N-tris(hydroxymethyl)methylglycine. […] On day 1 cells from sample dishes were harvested using trypsin (0.25%) treatment and counted with a hemocytometer to determine the number of cells per dish at the time of the addition of the compounds. Compounds of this invention were added in varying concentrations to other cultures. On day 4, treated and control cultures were harvested by trypsin treatment and the number of cells was determined. The number of doublings for the control cells was determined from the cell numbers on days 1 and 4. The ID50, the concentration of compound required to inhibit by 50 percent the number of doublings, was then calculated from the dose-response curve in which cell numbers were plotted on log-log paper against compound concentrations in micrograms per ml.
# [3] = Mus musculus, L1210, ip, 720 h, 18 mg/kg i.p., read-out: L1210 Leukemia % T/C (median survival time)
# [4] = Mus musculus, L1210, ip, 720 h, 400 mg/kg i.p., read-out: L1210 Leukemia % T/C (median survival time)
# [5] = Mus musculus, L1210, ip, 720 h, read-out: L1210 Leukemia % T/C (median survival time)
# [6] = Mus musculus, L1210, ip, 720 h, nonoptimal Q1DX9 instead of Q3DX9, read-out: L1210 Leukemia % T/C (median survival time)
compound,measurement,setting,value
Cc1c(-c2ccc(-c3ccc(F)cc3)cc2)nc2ccc(F)cc2c1C(=O)O [Example 121],response vs control in vivo at 18 mg/kg,[1]; [3],175%
same,in vitro HCT-15 ID50 (50 percent inhibition of number of doublings),[2],< 0.50 µg/mL
Cc1c(-c2ccc(-c3ccccc3)cc2)nc2cc(Cl)c(Cl)cc2c1C(=O)O [Example 47],IC50,[2],3.2 µg/mL
CCc1c(-c2ccc(C(C)CC)cc2)nc2ccc(F)cc2c1C(=O)O (centres unmarked) [Example 17],response vs control in vivo at 400 mg/kg,[1]; [4],136%
same,in vitro HCT-15 ID50 (50 percent inhibition of number of doublings),[2],0.65 µg/mL
CCc1c(-c2ccc(-c3ccccc3)cc2)nc2ccc(F)cc2c1C(=O)O [Example 18],response vs control in vivo at 100 mg/kg,[1]; [5],185%
same,in vitro HCT-15 ID50 (50 percent inhibition of number of doublings),[2],< 0.50 µg/mL
Cc1c(-c2ccc(Oc3ccc(Cl)cc3)cc2)nc2ccc(F)cc2c1C(=O)O [Example 29],L1210 Leukemia % T/C (median survival time),[1]; 18 mg/kg i.p.,194%
same,IC50,[2],< 0.5 µg/mL
Cc1c(-c2ccc(-c3ccccc3)cc2)nc2cc(Cl)ccc2c1C(=O)O [Example 49],response vs control in vivo at 200 mg/kg,[1]; [5],174%
same,IC50,[2],> 5 µg/mL
CCc1c(-c2ccc(C3CCCCC3)cc2)nc2ccc(F)cc2c1C(=O)O [Example 10],response vs control in vivo at 200 mg/kg,[1]; [5],163%
same,in vitro HCT-15 ID50 (50 percent inhibition of number of doublings),[2],0.03 µg/mL
"Cc1c(-c2ccc(-c3ccc(O)cc3)cc2)nc2ccc(Cl)cc2c1C(=O)O [Example 192, 6-Chloro-2-(4'-hydroxy-1,1'biphenyl-4-yl)-3-methyl-4-quinolinecarboxylic acid]",response vs control in vivo at 200 mg/kg,[1]; [5],166%
same,IC50,[2],> 1 µg/mL
CCN(CC)CCOC(=O)c1c(C)c(-c2ccc(-c3ccccc3F)cc2)nc2ccc(F)cc12 [Example 201],response vs control in vivo at 100 mg/kg,[1]; [5],175%
same,IC50,[2],> 1 µg/mL
Cc1ccc2nc(-c3ccc(-c4ccccc4)cc3)c(C)c(C(=O)O)c2c1 [Example 104],in vitro HCT-15 ID50 (50 percent inhibition of number of doublings),[2],0.22 µg/mL
Cc1c(-c2ccc(Oc3ccccc3)cc2)nc2ccc(F)cc2c1C(=O)O [Example 101],response vs control in vivo at 50 mg/kg,[1]; [5],154%
same,in vitro HCT-15 ID50 (50 percent inhibition of number of doublings),[2],0.41 µg/mL
Cc1c(-c2ccc(-c3ccc(F)cc3)cc2)nc2ccc(F)cc2c1C(=O)O [Example 177],L1210 Leukemia % T/C (median survival time),[1]; 37.5 mg/kg i.p.,172%
same,in vitro HCT-15 ID50 (50 percent inhibition of number of doublings),[2],< 0.50 µg/mL
CCc1c(-c2ccc(C(C)CC)cc2)nc2ccc(F)cc2c1C(=O)O (centres unmarked) [Example 107],response vs control in vivo at 25 mg/kg,[1]; [6],116%
same,in vitro HCT-15 ID50 (50 percent inhibition of number of doublings),[2],0.09 µg/mL
Cc1c(-c2ccc(C3CCCCC3)cc2)nc2ccc(F)cc2c1C(=O)O [Example 169],in vitro HCT-15 ID50 (50 percent inhibition of number of doublings),[2],0.04 µg/mL
CCc1ccc(-c2ccc(-c3nc4ccc(F)cc4c(C(=O)O)c3C)cc2)cc1 [Example 130],response vs control in vivo at 50 mg/kg,[1]; [5],132%
same,in vitro HCT-15 ID50 (50 percent inhibition of number of doublings),[2],> 1.0 µg/mL
Cc1c(-c2ccc(SC(C)C)cc2)nc2ccc(F)cc2c1C(=O)O [Example 13],response vs control in vivo at 400 mg/kg,[1]; [4],129%
same,IC50,[2],0.24 µg/mL
Cc1c(-c2ccc(-c3ccccc3)cc2F)nc2ccc(F)cc2c1C(=O)O [Example 208],IC50,[2],< 0.001 µg/mL
Cc1c(-c2ccc(C3CCCCC3)cc2)nc2c(Br)cc(Br)cc2c1C(=O)O [Example 46],IC50,[2],0.42 µg/mL
COc1ccc(-c2ccc(-c3nc4ccc(Cl)cc4c(C(=O)O)c3C)cc2)cc1 [Example 114],response vs control in vivo at 50 mg/kg,[1]; [6],121%
same,in vitro HCT-15 ID50 (50 percent inhibition of number of doublings),[2],1.30 µg/mL
Cc1c(-c2ccc(C3CCCCC3)cc2)nc2ccc(C(F)(F)F)cc2c1C(=O)O [Example 48],IC50,[2],0.1 µg/mL
Cc1c(-c2ccc(-c3ccccc3)cc2)nc2cc(F)ccc2c1C(=O)O [Example 186],response vs control in vivo at 45 mg/kg,"[1]; Mus musculus, L1210, ip, 720 h, 45 mg/kg i.p., nonoptimal Q1DX9 instead of Q3DX9, read-out: L1210 Leukemia % T/C (median survival time)",123%
CCc1cccc(-c2ccc(-c3nc4ccc(F)cc4c(C(=O)O)c3C)cc2)c1 [Example 41],IC50,[2],0.0079 µg/mL
Cc1c(-c2ccc(-c3ccccc3)cc2)nc2cccc(Cl)c2c1C(=O)O [Example 163],response vs control in vivo at 43.8 mg/kg,"[1]; Mus musculus, L1210, ip, 720 h, 43.8 mg/kg i.p., read-out: L1210 Leukemia % T/C (median survival time)",180%
Cc1c(-c2ccc(-c3ccccc3F)cc2)nc2ccc(F)c(Cl)c2c1C(=O)O [Example 84],IC50,[2],< 0.1 µg/mL
Cc1c(-c2ccc(Oc3ccccc3)cc2)nc2ccc(C(F)(F)F)cc2c1C(=O)O [Example 147],response vs control in vivo at 18 mg/kg,[1]; [3],132%
Cc1c(-c2ccc(-c3ccccc3F)cc2)nc2ccc(Cl)cc2c1C(=O)O [Example 70],IC50,[2],< 0.1 µg/mL
Cc1c(-c2ccc(-c3ccc(F)cc3)cc2)nc2ccc(Cl)cc2c1C(=O)O [Example 23],response vs control in vivo at 25 mg/kg,[1]; [5],159%
Cc1c(-c2ccc(-c3ccc(Br)cc3)cc2)nc2ccc(Cl)cc2c1C(=O)O [Example 117],response vs control in vivo at 25 mg/kg,[1]; [5],163%
Cc1c(-c2ccc(Oc3ccccc3)cc2)nc2ccc(Cl)cc2c1C(=O)O [Example 110],response vs control in vivo at 25 mg/kg,[1]; [5],135%
Cc1c(-c2ccc(-c3ccccc3)cc2)nc2ccc(F)cc2c1C(=O)OCCN(C)C [Example 196],response vs control in vivo at 50 mg/kg,[1]; [5],205%
"CSc1ccc2nc(-c3ccc(-c4ccccc4)cc3)c(C)c(C(=O)O)c2c1 [Example 76, 2-(4-Biphenyl)-3-methyl-6-methylthio-4-quinoline carboxylic acid]",response vs control in vivo at 200 mg/kg,[1]; [5],179%
Cc1c(-c2ccc(C3CCCCC3)cc2)nc2ccc(Br)cc2c1C(=O)O [Example 135],L1210 Leukemia % T/C (median survival time),[1]; 400 mg/kg i.p.,160%
Cc1c(-c2ccc(-c3ccc(Cl)c(Cl)c3)cc2)nc2ccc(F)cc2c1C(=O)O [Example 36],response vs control in vivo at 75 mg/kg,[1]; [5],185%
Cc1ccc(-c2ccc(-c3nc4ccc(F)cc4c(C(=O)O)c3C)cc2)cc1C [Example 39],IC50,[2],< 0.1 µg/mL
COc1c(-c2ccc(-c3ccc(C(F)(F)F)cc3)cc2)nc2ccc(F)cc2c1C(=O)O [Example 32],response vs control in vivo at 175 mg/kg,"[1]; Mus musculus, L1210, ip, 720 h, 175 mg/kg i.p., read-out: L1210 Leukemia % T/C (median survival time)",153%
Cc1ccc(-c2ccc(-c3nc4ccc(F)cc4c(C(=O)O)c3C)cc2)cc1C [Example 129],response vs control in vivo at 100 mg/kg,[1]; [5],154%
CCC(C)c1ccc(-c2nc3ccc(F)cc3c(C(=O)O)c2C)cc1 (centres unmarked) [Example 99],response vs control in vivo at 50 mg/kg,[1]; [6],101%
Cc1c(-c2ccc(-c3ccccc3)cc2)nc2cccc(Cl)c2c1C(=O)O [Example 80],IC50,[2],< 0.5 µg/mL
Cc1c(-c2ccc(-c3ccccc3)cc2)nc2cc(Cl)c(F)cc2c1C(=O)O [Example 61],response vs control in vivo at 75 mg/kg,[1]; [5],160%
